From patent publication US20230085307A1, “PYRIDAZINONE COMPOUND AND HERBICIDE” (NISSAN CHEMICAL CORPORATION, priority 2019, published 2023)

Assays:
late watergrass = assay: Test Example 1: herbicidal activity, application before weed generation under submerged conditions (Table 16, symbol A); type: in vivo, late watergrass (Echinochloa oryzicola); conditions: 320 g/ha applied herbicide
Outline: (§1)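 Emulsion formulation, water-diluted to set dose, was put onto the flooded surface (4 cm depth, alluvial soil) the same day weeds were sown and 2.5-leaf rice transplanted. After 3 weeks at 25-30 °C under glass, each species was rated 0 (≤5% kill) to 5 (≥90% kill).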

Japanese bulrush = assay: Test Example 1: herbicidal activity, application before weed generation under submerged conditions (Table 16, symbol B); type: in vivo, Japanese bulrush (Schoenoplectus juncoides); conditions: 320 g/ha applied herbicide
Outline: as §1

oval-leafed pondweed = assay: Test Example 1: herbicidal activity, application before weed generation under submerged conditions (Table 16, symbol C); type: in vivo, oval-leafed pondweed (Monochoria vaginalis); conditions: 320 g/ha applied herbicide
Outline: as §1

barnyard grass [1] = assay: Test Example 3: herbicidal effect by foliage application, Wagner pot (Table 18, symbol H); type: in vivo, barnyard grass (Echinochloa crus-galli); conditions: amount of applied herbicide 320 g/ha
Outline: (§2)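 Plants were sown in alluvial soil held under 0.1–0.5 cm standing water and grown 14 days in a greenhouse at 25–30 °C. An emulsifiable formulation, water-diluted to the set dose, was then sprayed onto the foliage, and effects were scored three weeks later using previously defined criteria.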

Chinese sprangletop = assay: Test Example 3: herbicidal effect by foliage application, Wagner pot (Table 18, symbol D); type: in vivo, chinese sprangletop (Leptochloa chinensis); conditions: amount of applied herbicide 320 g/ha
Outline: as §2

southern crabgrass [2] = assay: Test Example 4: herbicidal effect by soil treatment (Table 19, symbol F); type: in vivo, southern crabgrass (Digitaria ciliaris); conditions: amount of applied herbicide 320 g/ha
Outline: (§3)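 Three weeks of greenhouse growth at 25° C. to 30° C. followed a uniform surface spray of water-diluted emulsion at a predetermined herbicide amount. Seeds had been sown beforehand under about 1.5 cm of sterilized diluvial soil. Grading followed criteria set out in an earlier test.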

green foxtail [3] = assay: Test Example 4: herbicidal effect by soil treatment (Table 19, symbol G); type: in vivo, green foxtail (Setaria viridis); conditions: amount of applied herbicide 320 g/ha
Outline: as §3

barnyard grass [4] = assay: Test Example 4: herbicidal effect by soil treatment (Table 19, symbol H); type: in vivo, barnyard grass (Echinochloa crus-galli); conditions: amount of applied herbicide 320 g/ha
Outline: as §3

wild oat [5] = assay: Test Example 4: herbicidal effect by soil treatment (Table 19, symbol I); type: in vivo, wild oat (Avena fatua); conditions: amount of applied herbicide 320 g/ha
Outline: as §3

blackgrass [6] = assay: Test Example 4: herbicidal effect by soil treatment (Table 19, symbol J); type: in vivo, blackgrass (Alopecurus myosuroides); conditions: amount of applied herbicide 320 g/ha
Outline: as §3

Italian ryegrass [7] = assay: Test Example 4: herbicidal effect by soil treatment (Table 19, symbol K); type: in vivo, Italian ryegrass (Lolium multiflorum); conditions: amount of applied herbicide 320 g/ha
Outline: as §3

windgrass [8] = assay: Test Example 4: herbicidal effect by soil treatment (Table 19, symbol L); type: in vivo, windgrass (Apera spica-venti); conditions: amount of applied herbicide 320 g/ha
Outline: as §3

velvetleaf [9] = assay: Test Example 4: herbicidal effect by soil treatment (Table 19, symbol M); type: in vivo, velvetleaf (Abutilon theophrasti); conditions: amount of applied herbicide 320 g/ha
Outline: as §3

redroot pigweed [10] = assay: Test Example 4: herbicidal effect by soil treatment (Table 19, symbol N); type: in vivo, redroot pigweed (Amaranthus retroflexus); conditions: amount of applied herbicide 320 g/ha
Outline: as §3

lambsquarters [11] = assay: Test Example 4: herbicidal effect by soil treatment (Table 19, symbol O); type: in vivo, lambsquarters (Chenopodium album); conditions: amount of applied herbicide 320 g/ha
Outline: as §3

chickweed [12] = assay: Test Example 4: herbicidal effect by soil treatment (Table 19, symbol P); type: in vivo, common chickweed (Stellaria media); conditions: amount of applied herbicide 320 g/ha
Outline: as §3

false cleavers = assay: Test Example 4: herbicidal effect by soil treatment (Table 19, symbol Q); type: in vivo, false cleavers (Galium spurium); conditions: amount of applied herbicide 320 g/ha
Outline: as §3

persian speedwell [13] = assay: Test Example 4: herbicidal effect by soil treatment (Table 19, symbol R); type: in vivo, Persian speedwell (Veronica persica); conditions: amount of applied herbicide 320 g/ha
Outline: as §3

southern crabgrass [14] = assay: Test Example 5: herbicidal effect by foliage application, plastic box (Table 20, symbol F); type: in vivo, southern crabgrass (Digitaria ciliaris); conditions: foliage application, 320 g/ha, evaluated three weeks after application
Outline: (§4)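 Plants sown in sterilized diluvial soil and grown 14 days in a greenhouse at 25° C to 30° C, then sprayed on the foliage with the compound's emulsion diluted in water to a predetermined herbicide amount. Injury to weeds and crops scored three weeks after application on a visual rating scale.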

green foxtail [15] = assay: Test Example 5: herbicidal effect by foliage application, plastic box (Table 20, symbol G); type: in vivo, green foxtail (Setaria viridis); conditions: foliage application, 320 g/ha, evaluated three weeks after application
Outline: as §4

barnyard grass [16] = assay: Test Example 5: herbicidal effect by foliage application, plastic box (Table 20, symbol H); type: in vivo, barnyard grass (Echinochloa crus-galli); conditions: foliage application, 320 g/ha, evaluated three weeks after application
Outline: as §4

wild oat [17] = assay: Test Example 5: herbicidal effect by foliage application, plastic box (Table 20, symbol I); type: in vivo, wild oat (Avena fatua); conditions: foliage application, 320 g/ha, evaluated three weeks after application
Outline: as §4

blackgrass [18] = assay: Test Example 5: herbicidal effect by foliage application, plastic box (Table 20, symbol J); type: in vivo, blackgrass (Alopecurus myosuroides); conditions: foliage application, 320 g/ha, evaluated three weeks after application
Outline: as §4

Italian ryegrass [19] = assay: Test Example 5: herbicidal effect by foliage application, plastic box (Table 20, symbol K); type: in vivo, Italian ryegrass (Lolium multiflorum); conditions: foliage application, 320 g/ha, evaluated three weeks after application
Outline: as §4

windgrass [20] = assay: Test Example 5: herbicidal effect by foliage application, plastic box (Table 20, symbol L); type: in vivo, windgrass (Apera spica-venti); conditions: foliage application, 320 g/ha, evaluated three weeks after application
Outline: as §4

velvetleaf [21] = assay: Test Example 5: herbicidal effect by foliage application, plastic box (Table 20, symbol M); type: in vivo, velvetleaf (Abutilon theophrasti); conditions: foliage application, 320 g/ha, evaluated three weeks after application
Outline: as §4

redroot pigweed [22] = assay: Test Example 5: herbicidal effect by foliage application, plastic box (Table 20, symbol N); type: in vivo, redroot pigweed (Amaranthus retroflexus); conditions: foliage application, 320 g/ha, evaluated three weeks after application
Outline: as §4

lambsquarters [23] = assay: Test Example 5: herbicidal effect by foliage application, plastic box (Table 20, symbol O); type: in vivo, lambsquarters (Chenopodium album); conditions: foliage application, 320 g/ha, evaluated three weeks after application
Outline: as §4

chickweed [24] = assay: Test Example 5: herbicidal effect by foliage application, plastic box (Table 20, symbol P); type: in vivo, common chickweed (Stellaria media); conditions: foliage application, 320 g/ha, evaluated three weeks after application
Outline: as §4

persian speedwell [25] = assay: Test Example 5: herbicidal effect by foliage application, plastic box (Table 20, symbol R); type: in vivo, Persian speedwell (Veronica persica); conditions: foliage application, 320 g/ha, evaluated three weeks after application
Outline: as §4

## COc1cc(F)ccc1-c1sc2ccc(NC(C)=O)cc2c1-c1c(O)c(C)nn(C)c1=O [2-175]
Late watergrass
  Herbicidal effect on A: late watergrass (grade 0-5): 3 (Herbicidal rate of 40% or more and less than 70%)
Japanese bulrush
  Herbicidal effect on B: Japanese bulrush (grade 0-5): 0 (Herbicidal rate of 5% or less (almost no effect))
oval-leafed pondweed
  Herbicidal effect on C: oval-leafed pondweed (grade 0-5): 0 (Herbicidal rate of 5% or less (almost no effect))
Barnyard grass [1]
  herbicidal effect on H: barnyard grass: 4 (Herbicidal rate of 70% or more and less than 90%)
Chinese sprangletop
  herbicidal effect on D: Chinese sprangletop: 3 (Herbicidal rate of 40% or more and less than 70%)
Southern crabgrass [2]
  F: southern crabgrass, herbicidal effect rating: 0 (Herbicidal rate of 5% or less (almost no effect))
Green foxtail [3]
  G: green foxtail, herbicidal effect rating: 0 (Herbicidal rate of 5% or less (almost no effect))
Barnyard grass [4]
  H: barnyard grass, herbicidal effect rating: 0 (Herbicidal rate of 5% or less (almost no effect))
Wild oat [5]
  I: wild oat, herbicidal effect rating: 0 (Herbicidal rate of 5% or less (almost no effect))
Blackgrass [6]
  J: blackgrass, herbicidal effect rating: 0 (Herbicidal rate of 5% or less (almost no effect))
Italian ryegrass [7]
  K: Italian ryegrass, herbicidal effect rating: 0 (Herbicidal rate of 5% or less (almost no effect))
Windgrass [8]
  L: windgrass, herbicidal effect rating: 0 (Herbicidal rate of 5% or less (almost no effect))
Velvetleaf [9]
  M: velvetleaf, herbicidal effect rating: 0 (Herbicidal rate of 5% or less (almost no effect))
Redroot pigweed [10]
  N: redroot pigweed, herbicidal effect rating: 4 (Herbicidal rate of 70% or more and less than 90%)
Lambsquarters [11]
  O: lambsquarters, herbicidal effect rating: 4 (Herbicidal rate of 70% or more and less than 90%)
Chickweed [12]
  P: chickweed, herbicidal effect rating: 0 (Herbicidal rate of 5% or less (almost no effect))
False cleavers
  Q: false cleavers, herbicidal effect rating: 0 (Herbicidal rate of 5% or less (almost no effect))
Persian speedwell [13]
  R: persian speedwell, herbicidal effect rating: 0 (Herbicidal rate of 5% or less (almost no effect))
Southern crabgrass [14]
  herbicidal effect on F: southern crabgrass (criteria 0-5): 3 (Herbicidal rate of 40% or more and less than 70%)
Green foxtail [15]
  herbicidal effect on G: green foxtail (criteria 0-5): 4 (Herbicidal rate of 70% or more and less than 90%)
Barnyard grass [16]
  herbicidal effect on H: barnyard grass (criteria 0-5): 1 (Herbicidal rate of 5% or more and less than 20%)
Wild oat [17]
  herbicidal effect on I: wild oat (criteria 0-5): 3 (Herbicidal rate of 40% or more and less than 70%)
Blackgrass [18]
  herbicidal effect on J: blackgrass (criteria 0-5): 5 (Herbicidal rate of 90% or more (almost completely withered))
Italian ryegrass [19]
  herbicidal effect on K: Italian ryegrass (criteria 0-5): 0 (Herbicidal rate of 5% or less (almost no effect))
Windgrass [20]
  herbicidal effect on L: windgrass (criteria 0-5): 5 (Herbicidal rate of 90% or more (almost completely withered))
Velvetleaf [21]
  herbicidal effect on M: velvetleaf (criteria 0-5): 3 (Herbicidal rate of 40% or more and less than 70%)
Redroot pigweed [22]
  herbicidal effect on N: redroot pigweed (criteria 0-5): 5 (Herbicidal rate of 90% or more (almost completely withered))
Lambsquarters [23]
  herbicidal effect on O: lambsquarters (criteria 0-5): 5 (Herbicidal rate of 90% or more (almost completely withered))
Chickweed [24]
  herbicidal effect on P: chickweed (criteria 0-5): 5 (Herbicidal rate of 90% or more (almost completely withered))
Persian speedwell [25]
  herbicidal effect on R: persian speedwell (criteria 0-5): 1 (Herbicidal rate of 5% or more and less than 20%)
